Test results from patent US20060069132A1, “Azolecarboxamide herbicides” (priority 2004, published 2006).

Legend:
barnyardgrass [1] = experiment: Test B pre-/postemergence herbicide test; format: in vivo, Echinochloa crus-galli
Procedure, shortened: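 Species tested were Echinochloa crus-galli, Ipomoea coccinea, Xanthium strumarium and Oryza sativa, treated both before emergence and at the 1- to 4-leaf stage; rice and barnyardgrass were also tested under flooding at 2 leaves. Greenhouse incubation lasted 13–15 days before visual 0–100 scoring.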

morningglory = experiment: Test A pre-/postemergence herbicide test; format: in vivo, Ipomoea spp.
Procedure, shortened: (§1)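 Visual injury scores on a 0–100 scale (100 = complete control) taken about ten days post-treatment in greenhouse against untreated controls; dash means no result. Treatments: preemergence soil spray and postemergence spray to runoff on one- to two-leaf plants 2 to 10 cm tall, surfactant-containing formulation.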

johnsongrass = experiment: Test C pre-/postemergence herbicide test; format: in vivo, Sorghum halepense
Procedure, shortened: (§2)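 Visual ratings on a 0–100 scale (100 = complete control) made versus untreated controls after 12 to 14 greenhouse days. Test chemicals, formulated in surfactant-containing non-phytotoxic solvent, applied preemergence to planted seeds or postemergence to 1- to 4-leaf plants (2 to 18 cm).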

barnyardgrass [2] = experiment: Test A pre-/postemergence herbicide test; format: in vivo, Echinochloa crus-galli
Procedure, shortened: as §1

lambsquarters = experiment: Test C pre-/postemergence herbicide test; format: in vivo, Chenopodium album
Procedure, shortened: as §2

woolly cupgrass = experiment: Test C pre-/postemergence herbicide test; format: in vivo, Eriochloa villosa
Procedure, shortened: as §2

large crabgrass = experiment: Test B pre-/postemergence herbicide test; format: in vivo, Digitaria sanguinalis
Procedure, shortened: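 Response was scored visually 13 to 15 days after treatment against untreated greenhouse controls, 0 meaning no effect and 100 complete control. Formulations (solvent mixture plus surfactant) went onto soil after planting, onto foliage of 1- to 4-leaf plants, and onto 2-leaf plants in a flooded paddy set including rice and barnyardgrass.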

[3] = 125 g ai/ha; 0 = no effect, 100 = complete control; preemergence
[4] = 500 g ai/ha; visual rating 0-100, 0 no effect, 100 complete control; preemergence
[5] = postemergence, 125 g ai/ha; visual rating, scale 0 (no effect) to 100 (complete control)
[6] = postemergence, 500 g ai/ha; visual rating, scale 0 (no effect) to 100 (complete control)
[7] = Postemergence, 500 g ai/ha, 0 to 100 scale, 0 no effect, 100 complete control
[8] = Postemergence, 2000 g ai/ha, 0 to 100 scale, 0 no effect, 100 complete control
[9] = Preemergence, 2000 g ai/ha, visual rating, 0 to 100 scale (0 no effect, 100 complete control)
[10] = preemergence, 500 g ai/ha, visual injury, 0 to 100 scale (0 no effect, 100 complete control)
[11] = 62 g ai/ha, preemergence, scale 0 to 100
[12] = 125 g ai/ha, scale 0 (no effect) to 100 (complete control), visual, 12 to 14 days, preemergence
[13] = 250 g ai/ha, scale 0-100, preemergence
[14] = 500 g ai/ha, scale 0 to 100 (0 no effect, 100 complete control), visual, 12 to 14 days, preemergence
[15] = Postemergence, 500 g ai/ha, scale 0 to 100
[16] = Postemergence, 250 g ai/ha, scale 0 to 100, 0 no effect, 100 complete control
[17] = postemergence, 125 g ai/ha, scale 0 to 100
[18] = postemergence, 62 g ai/ha, scale 0 to 100
[19] = 125 g ai/ha; visual rating, scale 0 (no effect) to 100 (complete control); postemergence
[20] = 500 g ai/ha; visual rating, 0 = no effect, 100 = complete control; preemergence
[21] = postemergence, 500 g ai/ha; scale 0 to 100, 0 is no effect, 100 is complete control

CCc1nc(C(C)(C)C)sc1C(=O)Nc1cccc(C(=O)NCC2CC2)c1 [Compound 212]
Barnyardgrass plant response rating (0 to 100 scale) (barnyardgrass [1]; [3]): 80 | Plant response rating, Barnyardgrass (barnyardgrass [1]; [4]): 90 | Barnyardgrass plant response rating (barnyardgrass [1]; [5]): 10 | Barnyardgrass plant response rating (barnyardgrass [1]; [6]): 20 | Morningglory plant response rating (morningglory; [7]): 15 | Plant response rating, Morningglory (morningglory; [8]): 20 | Morningglory plant response rating (morningglory; [9]): 65 | Morningglory plant response rating (morningglory; [10]): 30 | Plant response rating, Johnsongrass (johnsongrass; [11]): 0 | Plant response rating, Johnsongrass (johnsongrass; [12]): 0 | Plant response rating, Johnsongrass (johnsongrass; [13]): 50 | Plant response rating, Johnsongrass (johnsongrass; [14]): 60 | Johnsongrass plant response rating (johnsongrass; [15]): 35 | Plant response rating, Johnsongrass (johnsongrass; [16]): 35 | Plant response rating, Johnsongrass (johnsongrass; [17]): 30 | Plant response rating, Johnsongrass (johnsongrass; [18]): 0 | Barnyardgrass plant response rating (barnyardgrass [2]; [7]): 50 | Plant response rating, Barnyardgrass (barnyardgrass [2]; [8]): 90 | Barnyardgrass plant response rating (barnyardgrass [2]; [9]): 85 | Barnyardgrass plant response rating (barnyardgrass [2]; [10]): 80 | Plant response rating, Lambsquarters (lambsquarters; [11]): 100 | Plant response rating, Lambsquarters (lambsquarters; [12]): 100 | Plant response rating, Lambsquarters (lambsquarters; [13]): 100 | Plant response rating, Lambsquarters (lambsquarters; [14]): 100 | Lambsquarters plant response rating (lambsquarters; [15]): 100 | Plant response rating, Lambsquarters (lambsquarters; [16]): 90 | Plant response rating, Lambsquarters (lambsquarters; [17]): 90 | Plant response rating, Lambsquarters (lambsquarters; [18]): 80 | Plant response rating, Cupgrass, Woolly (woolly cupgrass; [11]): 0 | Plant response rating, Cupgrass, Woolly (woolly cupgrass; [12]): 0 | Plant response rating, Cupgrass, Woolly (woolly cupgrass; [13]): 20 | Plant response rating, Cupgrass, Woolly (woolly cupgrass; [14]): 30 | Cupgrass, Woolly plant response rating (woolly cupgrass; [15]): 40 | Plant response rating, Cupgrass, Woolly (woolly cupgrass; [16]): 30 | Plant response rating, Cupgrass, Woolly (woolly cupgrass; [17]): 5 | Plant response rating, Cupgrass, Woolly (woolly cupgrass; [18]): 5 | Crabgrass, Large plant response rating (0 to 100 scale) (large crabgrass; [3]): 60 | Plant response rating, Crabgrass, Large (large crabgrass; [4]): 100 | Crabgrass, Large plant response rating (large crabgrass; [5]): 10 | Crabgrass, Large plant response rating (large crabgrass; [6]): 10

CCNC(=O)c1ccc(F)c(NC(=O)c2cc(C3(C)CC3)nn2CC)c1 [Compound 300]
Barnyardgrass plant response rating (0 to 100 scale) (barnyardgrass [1]; [3]): 70 | Barnyardgrass plant response rating (barnyardgrass [1]; [19]): 30 | Plant response rating, Barnyardgrass (barnyardgrass [1]; [20]): 90 | Barnyardgrass plant response rating (barnyardgrass [1]; [21]): 50 | Morningglory plant response rating (morningglory; [7]): 80 | Plant response rating, Morningglory (morningglory; [8]): 95 | Morningglory plant response rating (morningglory; [9]): 100 | Morningglory plant response rating (morningglory; [10]): 90 | Plant response rating, Johnsongrass (johnsongrass; [11]): 60 | Plant response rating, Johnsongrass (johnsongrass; [12]): 85 | Plant response rating, Johnsongrass (johnsongrass; [13]): 95 | Barnyardgrass plant response rating (barnyardgrass [2]; [7]): 75 | Plant response rating, Barnyardgrass (barnyardgrass [2]; [8]): 90 | Barnyardgrass plant response rating (barnyardgrass [2]; [9]): 100 | Barnyardgrass plant response rating (barnyardgrass [2]; [10]): 90 | Plant response rating, Lambsquarters (lambsquarters; [11]): 100 | Plant response rating, Lambsquarters (lambsquarters; [12]): 100 | Plant response rating, Lambsquarters (lambsquarters; [13]): 100 | Plant response rating, Cupgrass, Woolly (woolly cupgrass; [11]): 20 | Plant response rating, Cupgrass, Woolly (woolly cupgrass; [12]): 50 | Plant response rating, Cupgrass, Woolly (woolly cupgrass; [13]): 60 | Crabgrass, Large plant response rating (0 to 100 scale) (large crabgrass; [3]): 100 | Crabgrass, Large plant response rating (large crabgrass; [19]): 10 | Plant response rating, Crabgrass, Large (large crabgrass; [20]): 100 | Crabgrass, Large plant response rating (large crabgrass; [21]): 30
